Source: patent publication US20190255073A1, “ESTERS OF 3-POLYAMINE DERIVATIVES OF BILE ACIDS FOR THE TREATMENT OF INFECTIONS” (VIRBAC, priority 2016, published 2019)
In brackets after ≈: the same amount, converted by molar mass.

Legend:
[1] = test system: S. aureus ATCC25923; test: MIC determination by microplate dilution, S. aureus human strain; assay type: cell-based, Staphylococcus aureus; settings: Staphylococcus aureus, ATCC25923, Gram-positive, Mueller-Hinton medium, 24 h, 37° C.
Experimental: (§1) 1) Preparation of the Preculture
(§2) A negative control (2 mL of sterile culture medium)
(§3) A positive control (1940 μL of culture medium+40 μL of DMSO+20 μL of bacterial suspension) from a thawed biological strain (the biological strains are stored at −80° C. in glycerol).
(§4) The tubes were incubated at 37° C. for 24 hours at 100 rpm.
(§5) The microorganisms were handled under a type L2 laboratory fume cupboard and, before any handling, a UV cycle was programmed and only sterile material was used. […] The chemical compounds to be tested were prepared in a DMSO/methanol mixture (50/50) at a concentration of 5 mg/mL.
(§6) 2) Preparation of the Microplate for the Determination of the Minimum Inhibitory Concentration (MIC)
(§7) After 24 hours of incubation, a measurement of the optical density was taken using a spectrophotometer at 600 nm, collecting 100 μL of the bacterial suspension diluted in 900 μL of the sterile culture medium. This test required the use of a 96-well plate and the required volume of the microbial suspension to be seeded was calculated for an OD corresponding to a value equal to 0.01 in each well. In this plate, the first line corresponded to the negative control (195 μL of sterile culture medium in each well), the second line to the positive control (seeded culture medium supplemented with 2% of DMSO), the third line was loaded twice with bacterial suspension, 8 μL of test product were placed in each well. Thereafter, a 0.5 cascade dilution was performed from this line.
(§8) The first column served as inhibition control. A sterile filter was then placed on the microplate, allowing the passage of gases but not of contaminants. The microplate was incubated at 37° C. under a humid atmosphere for 24 hours.
(§9) NB: The medium used is Mueller-Hinton (MH) medium for bacteria. All the tests were performed in duplicate.
(§10) 4) Reading of the Results
(§11) After incubation, the filter was replaced with a transparent film, and an OD reading was then taken in an iEMS plate spectrophotometer at 620 nm. Calculation of the minimum inhibitory concentration (MIC) was performed.

[2] = test system: S. aureus (340); test: MIC determination by microplate dilution, S. aureus animal strain; assay type: cell-based, Staphylococcus aureus; settings: Staphylococcus aureus, Gram-positive, Mueller-Hinton medium, 24 h, 37° C.
Experimental: as §1, §2, §3, §4, §5, §6, §7, §8, §9, §10, §11

[3] = test system: S. intermedius (1051997); test: MIC determination by microplate dilution, S. intermedius animal strain; assay type: cell-based, Staphylococcus intermedius; settings: Staphylococcus intermedius, Gram-positive, Mueller-Hinton medium, 24 h, 37° C.
Experimental: as §1, §2, §3, §4, §5, §6, §7, §8, §9, §10, §11

[4] = test system: E. faecalis ATCC29212; test: MIC determination by microplate dilution, E. faecalis human strain; assay type: cell-based, Enterococcus faecalis; settings: Enterococcus faecalis, ATCC29212, Gram-positive, Mueller-Hinton medium, 24 h, 37° C.
Experimental: as §1, §2, §3, §4, §5, §6, §7, §8, §9, §10, §11

[5] = test system: E. coli ATCC28922; test: MIC determination by microplate dilution, E. coli human strain; assay type: cell-based, Escherichia coli; settings: Escherichia coli, ATCC28922, Gram-negative, Mueller-Hinton medium, 24 h, 37° C.
Experimental: as §1, §2, §3, §4, §5, §6, §7, §8, §9, §10, §11

[6] = test system: E. coli (1956); test: MIC determination by microplate dilution, E. coli animal strain; assay type: cell-based, Escherichia coli; settings: Escherichia coli, Gram-negative, Mueller-Hinton medium, 24 h, 37° C.
Experimental: as §1, §2, §3, §4, §5, §6, §7, §8, §9, §10, §11

[7] = test system: P. aeruginosa ATCC27853; test: MIC determination by microplate dilution, P. aeruginosa human strain; assay type: cell-based, Pseudomonas aeruginosa; settings: Pseudomonas aeruginosa, ATCC27853, Gram-negative, Mueller-Hinton medium, 24 h, 37° C.
Experimental: as §1, §2, §3, §4, §5, §6, §7, §8, §9, §10, §11

[8] = test system: P. aeruginosa (1051575); test: MIC determination by microplate dilution, P. aeruginosa animal strain; assay type: cell-based, Pseudomonas aeruginosa; settings: Pseudomonas aeruginosa, Gram-negative, Mueller-Hinton medium, 24 h, 37° C.
Experimental: as §1, §2, §3, §4, §5, §6, §7, §8, §9, §10, §11

[9] = test system: CHO-K1 cells; test: WST1 cytotoxicity test on CHO-K1 cells; assay type: cell-based, Chinese hamster; settings: Cricetulus griseus, CHO-K1, 24 h, read-out: IC50 (μg/mL) CHO
Experimental: Test WST1 was used to measure the cytotoxic activity of the products. This is a colorimetric test which makes it possible to measure the viability and the degree of cell proliferation. It is based on cleavage of the colorless tetrazolium salts WST-1 (4-[3-(4-iodophenyl)-2-(4-nitrophenyl)-2H-5-tetrazolio]-1,3-benzene disulfonate) with mitochondrial dehydrogenases to the yellow-colored formazan derivative, which may be quantified by spectrophotometry at 420-480 nm.
The WST1 test was performed on Chinese hamster ovary cells. The CHO-K1 cells (ATCC, USA) are kept in culture on McCoy's 5A medium supplemented with 10% fetal calf serum, 2 mM of L-glutamine and a mixture of penicillin-streptomycin (100 U/ml: 10 μg/mL). The culture is incubated at 37° C. under an atmosphere enriched in CO2 (5%), and subcultured every two days.
The cells are transferred into 96-well plates (25 000 cells/mL) in whole McCoy's 5A medium, and maintained for 24 hours at 37° C. under a humid atmosphere enriched in CO2 (5%). Increasing concentrations of test products are added to the wells in double tests and 8 growth controls containing the cells in the medium alone are included in each series of tests. After 24 hours at 37° C. (5% CO2), the culture medium is removed, the cells are rinsed in phosphate buffer (PBS) and 50 μL of PBS containing 10% of reagent WST1 are added to each well. After 20 minutes of incubation at 37° C., the results are read by spectrophotometry at 450 nm.
The results are expressed in dose-response relationships, modeled by nonlinear regression analysis using the TableCurve software. The 50% inhibitory concentration (IC50) represents the concentration of product that is capable of reducing the cell viability by 50%.

[10] = test system: P. aeruginosa (1051575); test: Potentiation of the doxycycline activity at 2 μg/mL; assay type: cell-based, Pseudomonas aeruginosa; settings: in combination with doxycycline 2 μg/mL; 24 h, 37°

Row | SMILES | MIC [1] | MIC [2] | MIC [3] | MIC [4] | MIC [5] | MIC [6] | MIC [7] | MIC [8] | IC50 [9] | MIC - P. aeruginosa (1051575): content of compound of formula (I) to restore the doxycycline activity (at 2 μg/mL) [10]
1 | CC(C)OC(=O)CC[C@@H](C)[C@H]1CCC2C3C(CC[C@@]21C)[C@@]1(C)CC[C@H](NCCCNCCCNCCCN)CC1C[C@@H]3O (stereo partly drawn) [(51), isopropyl 3β-norsperminoursodeoxycholate] | 15 µg/mL (≈ 24.8 µM) | 15 µg/mL (≈ 24.8 µM) | 4 µg/mL (≈ 6.61 µM) | 62 µg/mL (≈ 102 µM) | 30 µg/mL (≈ 49.6 µM) | 62 µg/mL (≈ 102 µM) | 30 µg/mL (≈ 49.6 µM) | 30 µg/mL (≈ 49.6 µM) | 30 µg/mL (≈ 49.6 µM) | 2 µg/mL
2 | CC(C)OC(=O)CC[C@@H](C)[C@H]1CCC2C3CCC4C[C@@H](NCCCNCCCN)CC[C@]4(C)C3C[C@H](O)[C@@]21C (stereo partly drawn) [Compound (2), isopropyl 3β-norspermidinodeoxycholate] | 3 µg/mL (≈ 5.48 µM) | 3 µg/mL (≈ 5.48 µM) | 3 µg/mL (≈ 5.48 µM) | 14 µg/mL (≈ 25.6 µM) | 14 µg/mL (≈ 25.6 µM) | 28 µg/mL (≈ 51.1 µM) | 14 µg/mL (≈ 25.6 µM) | 14 µg/mL (≈ 25.6 µM) | 60 µg/mL (≈ 110 µM) | 3 µg/mL
3 | CC(C)OC(=O)CC[C@@H](C)[C@H]1CCC2C3CCC4C[C@@H](NCCCNCCCNCCCN)CC[C@]4(C)C3C[C@H](O)[C@@]21C (stereo partly drawn) [Compound (1), isopropyl 3β-norsperminodeoxycholate] | 4 µg/mL (≈ 6.61 µM) | 2 µg/mL (≈ 3.31 µM) | 2 µg/mL (≈ 3.31 µM) | 8 µg/mL (≈ 13.2 µM) | 8 µg/mL (≈ 13.2 µM) | 10 µg/mL (≈ 16.5 µM) | 8 µg/mL (≈ 13.2 µM) | 2 µg/mL (≈ 3.31 µM) | 50 µg/mL (≈ 82.6 µM) | 2 µg/mL
4 | CC(C)OC(=O)CC[C@@H](C)[C@H]1CCC2C3C(C[C@H](O)[C@@]21C)[C@@]1(C)CC[C@H](NCCCNCCCN)CC1C[C@H]3O (stereo partly drawn) [(7), isopropyl 3β-norspermidinocholate] | 28 µg/mL (≈ 49.7 µM) | – | 28 µg/mL (≈ 49.7 µM) | 28 µg/mL (≈ 49.7 µM) | 28 µg/mL (≈ 49.7 µM) | > 50 µg/mL | 30 µg/mL (≈ 53.2 µM) | 30 µg/mL (≈ 53.2 µM) | 110 µg/mL (≈ 195 µM) | 4 µg/mL
